From patent publication US9623046B2, “Amphiphilic Janus-dendrimers” (The Trustees Of The University Of Pennsylvania, priority 2009, dated 2017)
Read-outs that look alike come from different tables or passages of the source.

How the values were obtained:
[1] = Micropipette aspiration of giant unilamellar dendrosomes (mechanical properties); type: physicochemical
Experimental: The elastic properties of dendrosome membranes were determined by micropipette aspiration following an analogous procedure described previously (Needham, Biophys. J. 58, 997-1009 (1990)). Giant unilamelar (˜[…] diameter) dendrosomes were prepared by Teflon film hydration as described herein and dispersed into iso-osmotic ultrapure water. Glass micropipettes with inner diameter from ˜3 μm to ˜10 μm were filled with iso-osmotic ultrapure water and connected to an aspiration station mounted on the side of a Zeiss inverted microscope, equipped with a manometer. The pipettes were used to manipulate the dendrosomes and to apply well-defined stress to the wall by inducing suction tension on their membranes.
The micropipette suction pressure is controlled in the range of microatmospheres and tenths of atmospheres (0.1 N/m^2 to 10000 N/m^2). The tension results in deformation and consequently provides direct measurements of the elastic moduli, which characterizes the membrane area expansion and bending, together with other parameter that characterize the tensile failure of the vesicle membrane according to the equations (1) and (2): Ka=Δτ/Δα (1) Es=Ka(αc)^2/2 (2) were Ka=elastic area expansion modulus; Δτ=fractional tension; τs=membrane tension at failure; Δα=fractional increase in membrane area; αc=critical areal strain-fractional increase in membrane area at failure, and Es=energy stored at failure Results are presented in the Table below.

Melittin = Melittin (Apis mellifera, UniProt P01501); conditions: Melittin 63 μL, 300 μM into 2 mL suspension
Chain of Melittin (P01501 44-69 limits assumed): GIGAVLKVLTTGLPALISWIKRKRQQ

[2] = polymersomes and lipids (liposomes), comparison; cited from earlier work
[3] = test system: human umbilical vein endothelial cells (HUVECs); experiment: Cell viability, CellTiter-Blue assay; type: cell-based; conditions: CellTiter-Blue, 1, 2 and 4 h, compared to control
Experimental: Since endothelial cells are the first point of contact for intravenous drug formulations, the toxicity of the dendrosomes was evaluated in vitro on human umbilical vein endothelial cells (HUVECs). HUVECs were cultured in EGM Endothelial Growth Media (LONZA) supplemented with bovine brain extract (BBE) with heparin, h-EGF, hydrocortisone, gentamicin, amphotericin B (GA-1000), and fetal bovine serum (FBS). Cells were maintained in plastic culture flasks at 37° C. in a humidified atmosphere containing 5% CO2 and were further subcultured when the flasks were 70% to 90% confluent. The passage number of the cells for the HUVECs in vitro studies was 5-8. The investigation of toxicity of dendrosomes and viability of the cells was assessed fluorometrically by determining the number of viable cells present in multiwell plates. Cell viability was determined using the indicator dye resazurin, which is reduced by viable cells to a highly fluorescent form resorufin according to Scheme S17. […] The CellTiter-Blue Cell Viability Assay was obtained from Promega.
HUVECs were plated at a density of 3,200 cells per well (10,000 cells/cm^2) in 96 well tissue culture plates and allowed to adhere overnight. Culture media was removed from the wells and replaced with 250 μL of either: 100% media, 94% media/6% PBS buffer, 87.5% media/12.5% PBS buffer, 75% media/25% PBS buffer, 100% PBS buffer, and various concentrations of sterile dendrosomes and polymersomes ranging from 0.25 mg to 0.0625 mg in the three concentrations of media/PBS, and maintained at 37° C. in a humidified atmosphere of 5% CO2. The dendrosomes and polymersomes were prepared by film the hydration method as described in section S5.1 and extruded 25 times through 100 nm polycarbonate membrane. Dendrosomes and polymersomes were sterilized by exposing them for […] min to UV irradiation. […] The fluorescence intensity at 590 nm emanating from the wells when excited at 560 nm was then determined using a TECAN Inifinite2000 plate reader.

[4] = Dynamic light scattering of dendrosomes formed by ethanol injection (size, polydispersity); type: physicochemical
Experimental: Dynamic light scattering measurements (DLS) were performed with a Malvern Instruments particle sizer (Zetasizer® Nano S, Malvern Instruments, UK).
Small unilamellar dendrosomes of <200 nm size were obtained by fast injection of 100 μL of ethanol (THF, acetone, dioxane, acetonitrile or DMSO for the solvent dependence studies) solution containing 10 mg of Janus-dendrimer dissolved in 1 mL of solvent into various volumes of milippore water (0.5 mL-5 mL) giving final Janus-dendrimer concentrations of 0.1-2 mg/mL. Dendrosomes obtained via injection method were used without further manipulation to study the influence of concentration, solvent, temperature and time on size and polydispersity by dynamic light scattering (DLS) as well as for the characterization of dendrosome morphologies via cryogenic transmission electron microscopy (cryo-TEM).
Dendrosomes were formed according to the general method discussed herein at final concentrations from 0.5-20 mg/mL. DLS measurements were carried out immediately following injection and repeated after 60 min. […] Monomodal distributions were obtained from 0.5-7 mg/mL and bimodal distributions from 10-20 mg/mL. […] At concentrations over […], multimodal size distributions and increased flocculation in time was observed.
Dendrosomes were formed according to the general method discussed herein at final concentrations of 0.5 mg/mL aqueous solution.

[5] = Miscibility of Janus-dendrimers with phospholipids (microscopy, DSC); type: physicochemical; conditions: 1:1 ratio, film hydration
[6] = concentrations of 0.5-2 mg/mL, unimodal distributions

Question: With (3,5)12G1-PE-(3,4)-3EO-G1-(OH)4 as the molecule, how does the “Critical αc (critical areal strain)” value [1] read?
Answer: The value was 0.06.

Question: And the “Energy stored at failure” value [1]?
Answer: The value was 0.73 mJ/m^2.

Question: What about the “Ka (elastic area expansion modulus)” value [1] of the same molecule?
Answer: Its value is 582.5 mN/m.

Question: And the “Lysis Tension τs” value [1]?
Answer: The value was 15.11 mN/m.

Question: Which “CD signal after Melittin addition” value (Melittin) does the source give for CCCCCCCC/C=C\CCCCCCCC(=O)O[C@H](COC(=O)CCCCCCCCCCCCCCCCC)COP(=O)([O-])OCC[N+](C)(C)C [SOPC, 1-Stearoyl-2-Oleoyl-Sn-Glycero-3-Phosphatidylcholine, reference compound] here?
Answer: Its value is “showed CD signal”.

Question: For DAPC, which “Critical αc (critical areal strain)” value [2] is on record?
Answer: The value was 0.04.

Question: And the “Ka (elastic area expansion modulus)” value [2]?
Answer: Its value is 57 mN/m.

Question: And the “Lysis Tension τs” value [2]?
Answer: Its value is 2.3 mN/m.

Question: With “(3,4)12G1-PE-(3,4,5)-3EO-G1-(OCH3)6 [Dendrosome 1]” as the molecule, how does the “cell viability / toxicity” value [3] read?
Answer: The value was “excellent biocompatibility”.

Question: Which “Ka (elastic area expansion modulus)” value [2] does the source give for CCCCCCCCCCCCCC(=O)OC[C@H](COP(=O)([O-])OCC[N+](C)(C)C)OC(=O)CCCCCCCCCCCCC [DMPC] here?
Answer: Its value is 234 mN/m.

Question: For “(3,5)12G1-PE-(3,4,5)-3EO-G1-(OCH3)6 [Dendrosome 2]”, which “cell viability / toxicity” value [3] is on record?
Answer: Its value is “excellent biocompatibility”.

Question: What does the source list for “(3,5)12G1-PE-BMPA-G2-(OH)8 [(3,5)12G1-PE-BMPA-(OH)8]”?
Answer: Critical αc (critical areal strain) [1]: 0.03; Energy stored at failure [1]: 0.69 mJ/m^2; Ka (elastic area expansion modulus) [1]: 976 mN/m; Lysis Tension τs [1]: 15.5 mN/m; Z-average size ([4]; concentration 0.5 mg/mL): 94 nm; polydispersity ([4]; concentration 0.5 mg/mL): 0.04; Z-average size ([4]; concentration 10 mg/mL): 330 nm; polydispersity ([4]; concentration 10 mg/mL): 0.17; PDI ([4]; concentration of 20 mg/mL): 0.4; sizes ([4]; concentration of 20 mg/mL): 1004 nm; sizes ([4]; concentrations of 0.5-10 mg/mL): 94-330 nm; miscibility with SOPC [5]: confirmed by DSC; CD signal after Melittin addition (Melittin): showed CD signal

Question: For “(3,4)12G1-PE-BMPA-G2-(OH)8 [(3,4)12G1-PE-BMPA-(OH)8]”, which “Critical αc (critical areal strain)” value [1] is on record?
Answer: The value was 0.04.

Question: And the “Energy stored at failure” value [1]?
Answer: Its value is 0.42 mJ/m^2.

Question: What about the “Ka (elastic area expansion modulus)” value [1] of the same molecule?
Answer: The value was 961 mN/m.

Question: And the “Lysis Tension τs” value [1]?
Answer: The value was 20.4 mN/m.

Question: What about the PDI [4, 6] of the same molecule?
Answer: Its PDI is 0.07-0.2.

Question: And the sizes [4, 6]?
Answer: The sizes was 111-175 nm.

Question: With “(3,4,5)12G1-PE-BMPA-G2-(OH)8 [(3,4,5)12G1-PE-BMPA-(OH)8]” as the molecule, how does the “Critical αc (critical areal strain)” value [1] read?
Answer: Its value is 0.06.

Question: What about the “Energy stored at failure” value [1] of the same molecule?
Answer: The value was 0.11 mJ/m^2.

Question: What about the “Ka (elastic area expansion modulus)” value [1] of the same molecule?
Answer: The value was 42.44 mN/m.

Question: What about the “Lysis Tension τs” value [1] of the same molecule?
Answer: The value was 0.88 mN/m.

Question: With (3,4,5)12G1-PE-(3,4,5)-3EO-G1-(OH)6 as the molecule, how does the “Critical αc (critical areal strain)” value [1] read?
Answer: Its value is 0.04.

Question: What about the “Energy stored at failure” value [1] of the same molecule?
Answer: The value was 0.27 mJ/m^2.

Question: What about the “Ka (elastic area expansion modulus)” value [1] of the same molecule?
Answer: The value was 267.5 mN/m.

Question: And the “Lysis Tension τs” value [1]?
Answer: Its value is 12.7 mN/m.

Question: And the “cell viability / toxicity” value [3]?
Answer: Its value is “excellent biocompatibility”.
